Source: patent publication US5034553A, “Platinum-(II)-diamine complex, method for the preparation of this compound, preparation with an anti-tumour action which contains this compound and also shaped preparations with an anti-tumour action” (Nederlandse Organisatie Voor …, priority 1988, dated 1991)
Blank lines part the entries; values can stand above or below the compound they belong to.

Columns and labels:
A2780/124 = settings: for IC50 ratio: IC50 A2780/124 versus IC50 A2780
Procedure: (§3) The cytotoxic action of the platinum complex was evaluated in vitro in a cell line panel consisting of B16-F10 murine melanoma, HCT-116 human colon carcinoma, A2780 human ovary carcinoma and 2 sub-lines of A2780 which are resistant to cis-platinum, i.e. A2780/124 and A2780/PPD respectively. The B16-F10 cell line was kept in a culture of Eagle's Minimum Essential Medium (MEM) with Earle's salts (Gibco) enriched with 2 mmol L-glutamine, 2.06 mmol sodium pyruvate, insulin (0.26 units/ml), penicillin/streptomycin (10 units/ml and 10 mcg/ml respectively), MEM non-essential amino acids (0.6% by weight Gibco) and 10% foetal bovine serum (Hyclone). The HCT-116 cells were cultured in McCoy's 5A medium (modified Gibco) which was supplemented with 2 mmol L-glutamine, 0.12 mmol L-serine, 0.17 mmol asparagine, 1.5 mmol sodium pyruvate, MEM essential amino acids (0.625%, Gibco), MEM non-essential amino acids (0.67%, Gibco), MEM vitamins (0.6%, Gibco), foetal calf serum (10%, Hyclone) and penicillin/streptomycin (10 units/ml and 10 mcg/ml). The A2780 cell lines are cultured in RPMI medium 1640 (Gibco Laboratories) supplemented with foetal calf serum (10% Hyclone), 2 mmol L-glutamine and penicillin/streptomycin. All cell lines are incubated at 37° C. in an incubator with 5% by volume CO2 with a high atmospheric humidity.
(§4) Logarithmically growing cells are harvested by mild trypsinisation and 4,000 cells are added to a microtitre plate with 96 wells (Costar). The plates are incubated for one night in 5% by volume CO2 at 37° C. to allow the cells to adhere to the plate. The cells are then treated with the platinum complex or cis-platinum and incubated for 72 hours. […] Formalin (10% by weight) in a phosphate-buffered physiological saline solution is added and the cells are fixed for 10 minutes. […] The spot is rendered soluble with 0.2 ml 0.1M acetic acid/ethanol (1:1) and the optical densities are determined with the aid of a Dynatech MR 600 microtitre plate reader. […]

A2780/DDP = settings: for IC50 ratio: IC50 A2780/DDP versus IC50 A2780
Procedure: as §3, §4

[1] = B. Rosenberg et al., Nature 222 (1969); cited from earlier work
L1210 murine leukaemia = experiment: Activity against L1210 murine leukaemia; assay type: in vivo, CDF1 mice; settings: for % T/C: once on day 1
Procedure: The platinum complex is investigated for anti-tumour action against L1210 murine leukaemia. CDF1 mice with a weight of 20 g were inoculated intraperitoneally with 10^6 ascitic cells of L1210 leukaemia. The administration of the active substance was started the day following the intraperitoneal implantation of the tumour. The complex is administered in diverse amounts by intraperitoneal injections. Groups of 6 mice are used for each dose and they are treated with a single dose of the complex on the treatment day. A group of ten control mice treated with a physiological saline solution was included in the experiment. The groups treated with cis-platinum are included as positive comparisons. The mice were weighed before the treatment and again on the fifth or sixth day and the average change in weight is taken as a measure of the toxicity. The animals are assessed daily for mortality and the experiments are ended after 30 days. The tumour activity is determined on the basis of % T/C, which is the ratio of mean survival time of the group treated with the active substance relative to the mean survival time of the comparison group treated with a physiological saline solution times 100. The mice treated with physiological saline solution usually have a mean survival time of 7 days. A compound is regarded as active when this gives a % T/C≥125%.

[2] = system: M5076 reticulum cell sarcoma; experiment: Action against M5076 sarcoma, intraperitoneal implantation, i.p. treatment; assay type: in vivo, BDF1 mice
Procedure: (§1) The complex was also assessed for anti-tumour action against M5076 sarcoma. BDF1 mice, 8 per group, were inoculated intraperitoneally with 10^6 cells of M5076 or subcutaneously with a fragment of a M5076 tumour.
(§2) Mice with an intraperitoneal tumour were treated intraperitoneally starting 13 days after the implantation and this was continued on days 17, 21 and 25, resulting in 4 treatments in all. Mice with an implanted subcutaneous tumour were treated intravenously starting 5 days after the implantation and again on days 9, 13 and 17. Therefore a total of four treatments. Four doses of the complex were tested. A comparison group treated with physiological saline solution and groups treated with cs-platinum are included in this experiment. The mice were assessed daily for survival and the tests were ended after 75 to 80 days. The anti-tumour action was determined on the basis of a) mean survival time of the mice treated with the active substance relative to that of the untreated mice (% T/C) and b) the mean time for subcutaneously implanted tumours to reach a weight of 1 gram in mice treated with active substance relative to the untreated mice (T-C). A compound is regarded as active if this gives a T/C≥125% or is T-C≥13 days.

[3] = system: M5076 reticulum cell sarcoma; experiment: Action against M5076 sarcoma, subcutaneous implantation, i.v. treatment; assay type: in vivo, BDF1 mice; settings: for T-C: time to 1 gram tumour
Procedure: as §1, §2

[4] = system: HCT-116 human colon carcinoma; experiment: In vitro cytotoxicity, HCT-116; assay type: cell-based; settings: HCT116, 72 hours
Procedure: (§5) The cytotoxic action of the platinum complex was evaluated in vitro in a cell line panel consisting of B16-F10 murine melanoma, HCT-116 human colon carcinoma, A2780 human ovary carcinoma and 2 sub-lines of A2780 which are resistant to cis-platinum, i.e. A2780/124 and A2780/PPD respectively. The B16-F10 cell line was kept in a culture of Eagle's Minimum Essential Medium (MEM) with Earle's salts (Gibco) enriched with 2 mmol L-glutamine, 2.06 mmol sodium pyruvate, insulin (0.26 units/ml), penicillin/streptomycin (10 units/ml and 10 mcg/ml respectively), MEM non-essential amino acids (0.6% by weight Gibco) and 10% foetal bovine serum (Hyclone). The HCT-116 cells were cultured in McCoy's 5A medium (modified Gibco) which was supplemented with 2 mmol L-glutamine, 0.12 mmol L-serine, 0.17 mmol asparagine, 1.5 mmol sodium pyruvate, MEM essential amino acids (0.625%, Gibco), MEM non-essential amino acids (0.67%, Gibco), MEM vitamins (0.6%, Gibco), foetal calf serum (10%, Hyclone) and penicillin/streptomycin (10 units/ml and 10 mcg/ml). […]
(§6) Logarithmically growing cells are harvested by mild trypsinisation and 4,000 cells are added to a microtitre plate with 96 wells (Costar). […] The spot is rendered soluble with 0.2 ml 0.1M acetic acid/ethanol (1:1) and the optical densities are determined with the aid of a Dynatech MR 600 microtitre plate reader. […]

[5] = system: A2780 human ovary carcinoma; experiment: In vitro cytotoxicity, A2780; assay type: cell-based; settings: A2780, 72 hours
Procedure: as §5, §6

[6] = system: B16-F10, HCT-116, A2780, A2780/124 and A2780/DDP; assay type: cell-based, murine and human
Procedure: as §5, §6

B16-F10 murine melanoma = experiment: In vitro cytotoxicity, B16-F10; assay type: cell-based; settings: B16-F10, 72 hours
Procedure: as §5, §6

[7] = 2.4 mg/kg i.v. on days 5, 9, 13 and 17
[8] = 4.8 mg/kg i.v. on days 5, 9, 13 and 17
[9] = 4 mg/kg i.v. on days 5, 9, 13 and 17
[10] = 6 mg/kg i.v. on days 5, 9, 13 and 17
[11] = 8 mg/kg i.v. on days 5, 9, 13 and 17
[12] = 12 mg/kg i.v. on days 5, 9, 13 and 17

Compound: N.N.[Cl][Pt][Cl] [Cis-platinum, cis-diamine-dichloroplatinum, reference compound]
IC50 ratio (A2780/124): 10
IC50 ratio (A2780/DDP): 12.6
anti-tumour activity [1]: very strong anti-tumour activity
maximum % T/C (L1210 murine leukaemia; 6-10 mg/kg): 138%
% T/C ([2]; 2.4 mg/kg i.p. on days 13, 17, 21 and 25): 164%
% T/C ([2]; 4.8 mg/kg i.p. on days 13, 17, 21 and 25): 166%
% T/C [3, 7]: 144%
T-C [3, 7]: 23.3 days
% T/C [3, 8]: 141%
T-C [3, 8]: 31.8 days

IC50 (A2780/124; A2780/124, 72 hours): 155 µg/mL
IC50 ratio (A2780/124): 0.7
IC50 (A2780/DDP; A2780/DDP, 72 hours): 110 µg/mL
IC50 ratio (A2780/DDP): 0.5
Compound: CC(C)C(CN)(CN)C(C)C.O=C([O-])C(=O)[O-].[Pt+2] [TNO-56, 2,2-Diisopropyl-1,3-diaminopropaneoxalatoplatinum (II)]
IC50 [4]: 115 µg/mL
IC50 [5]: 221 µg/mL
cytotoxic action [6]: cytotoxic for all five cell lines
% T/C (L1210 murine leukaemia; 10 mg/kg i.p.): 125%
% T/C (L1210 murine leukaemia; 20 mg/kg i.p.): 144%
% T/C (L1210 murine leukaemia; 40 mg/kg i.p.): 88%
activity (L1210 murine leukaemia; 10 and 20 mg/kg i.p., active if % T/C≥125%): active
IC50 (B16-F10 murine melanoma): 43 µg/mL
% T/C ([2]; 4 mg/kg i.p. on days 13, 17, 21 and 25): 139%
% T/C ([2]; 6 mg/kg i.p. on days 13, 17, 21 and 25): 154%
% T/C ([2]; 8 mg/kg i.p. on days 13, 17, 21 and 25): 161%
% T/C ([2]; 12 mg/kg i.p. on days 13, 17, 21 and 25): 193%
activity ([2]; all doses tested, i.p.): active
% T/C [3, 9]: 119%
T-C [3, 9]: 7.8 days
% T/C [3, 10]: 135%
T-C [3, 10]: 14.0 days
% T/C [3, 11]: 140%
T-C [3, 11]: 21.5 days
% T/C [3, 12]: 144%
T-C [3, 12]: 26.8 days
% T/C and tumour inhibition ([3]; dose dependence, i.v.): dosage-dependent increase in % T/C and tumour inhibition
